Reference: patent publication US11974574B2, “Compositions and related methods for modulating endosymbionts” (Flagship Pioneering Innovations V, Inc., priority 2017, dated 2024)

Assays:
[1] = tested on: Aphids (LSR-1 strain, Acyrthosiphon pisum); assay: BCR-4 PNA leaf perfusion, aphid development and survival; format: in vivo; conditions: leaf perfusion with 1 uM solution
Procedure: Aphids (LSR-1 strain, Acyrthosiphon pisum) were grown on fava bean plants (Vroma Vicia faba from Johnny's Selected Seeds) in a climate-controlled incubator (16 h light/8 h dark photoperiod; 60±5% RH; 25±2° C.). Prior to being used for aphid rearing, fava bean plants were grown in potting soil at 24° C. with 16 h of light and 8 h of darkness. To limit maternal effects or health differences between plants, 5-10 adults from different plants were distributed among 10 two-week-old plants and allowed to multiply to high density for 5-7 days. For experiments, first and second instar aphids were collected from healthy plants and divided into two different treatment groups: 1) those allowed to feed on leaves perfused with water, and, 2) those allowed to feed on leaves perfused with a BCR-4 PNA solution in water.
For each leaf perfusion, approximately 1 ml of water (negative control) or a 1 uM BCR-4 PNA solution was injected into a fava bean leaf. […] Aphids were monitored daily for survival and dead aphids were removed when they were discovered. In addition, the developmental stage (1st, 2nd, 3rd, 4th, and 5th instar) was determined daily throughout the experiment.
LSR-1 first and second instar aphids were divided into two groups as defined in Leaf Perfusion Experimental Design. Aphids were monitored daily and the number of aphids at each developmental stage was determined. […]

Buchnera = assay: BCR-4 PNA leaf perfusion, Buchnera/aphid copies by qPCR; format: in vivo; conditions: dead aphids collected 5 and 6 days post-treatment, water approximately 20
Procedure: After 5 and 6 days of treatment, DNA was extracted from dead aphids from each treatment group. Briefly, the aphid body surface was sterilized by dipping the aphid into a 6% bleach solution for approximately 5 seconds. Aphids were then rinsed in sterile water and DNA was extracted from each individual aphid using a DNA extraction kit (Qiagen, DNeasy kit) according to manufacturer's instructions. DNA concentration was measured using a nanodrop nucleic acid quantification, and Buchnera and aphid DNA copy numbers were measured by qPCR. The primers used for Buchnera were Buch_groES_18F ([…]; SEQ ID NO: 101) and Buch_groES_98R ([…]; SEQ ID NO: 102) (Chong and Moran, 2016 PNAS). The primers used for aphid were ApEF1a 107F ([…]; SEQ ID NO: 103) and ApEF1a 246R ([…]; SEQ ID NO: 104) (Chong and Moran, 2016 PNAS). qPCR was performed using a qPCR amplification ramp of 1.6 degrees C./s and the following conditions: 1) 95° C. for 10 minutes, 2) 95° C. for 15 seconds, 3) 55° C. for 30 seconds, 4) repeat steps 2-3 40×, 5) 95° C. for 15 seconds, 6) 55° C. for 1 minute, 7) ramp change to 0.15 degrees C./s, 8) 95° C. for 1 second. qPCR data was analyzed using analytic (Thermo Fisher Scientific, QuantStudio Design and Analysis) software. […]

Aphids LSR-1, A. pisum = assay: BCR-4 PNA microinjection, aphid survival and fecundity; format: in vivo
Procedure: (§1) Microinjection was performed using NanoJet III Auto-Nanoliter Injector with an in-house pulled borosilicate needle (Drummond Scientific; Cat #3-000-203-G/XL). Aphids were transferred using a paint brush to a tubing system connected to vacuum which held them in place during the injection. The injection site was at the ventral thorax of the aphid. The injection solutions were water (negative control) or 321 ng/μl of BCR-4 PNA in water. The injection volume was 20 nl for adult (4th and 5th instar) aphids at a rate of 2 nl/sec. Each treatment group had approximately the same number of individuals injected from each of the collection plants. After injection, aphids were released into a petri dish onto fava bean leaves that had stems in an Eppendorf tube filled with 1 ml water. Survival and fecundity were monitored over the course of the experiment.
(§2) Aphids LSR-1 (which harbor only Buchnera), A. pisum were grown on fava bean plants (Vroma Vicia faba from Johnny's Selected Seeds) in a climate-controlled incubator (16 h light/8 h dark photoperiod; 60±5% RH; 25±2° C.). […]
The number of offspring produced from aphids in each treatment group was also assessed during the experiment and fecundity was represented as the number of offspring produced per adult at each time point assessed. […]

BCR-4 [2] = assay: BCR-4 PNA leaf perfusion, BCR-4 expression by RT-qPCR; format: in vivo, Acyrthosiphon pisum; conditions: living aphids after 7 days of treatment, relative to actin
Procedure: After 7 days of treatment, RNA was extracted from the remaining aphids in each treatment group. Briefly, the aphid body surface was sterilized by dipping the aphid into a 6% bleach solution for approximately 5 seconds. Aphids were then rinsed in sterile water and total RNA was extracted from each individual aphid using the RNA extraction kit (Qiagen miRNeasy kit) according to manufacturer's instructions. RNA concentrations were measured using a nanodrop nucleic acid quantification. BCR-4 relative expression was measured by RT-qPCR. The primers used were ApBCR-4F ([…]; SEQ ID NO: 107) and ApBCR-4R ([…]; SEQ ID NO: 108). The internal reference gene primers were for Actin (housekeeping gene). The forward sequence was […]; SEQ ID NO: 109 and the reverse sequence was […]; SEQ ID NO: 110. […] RT-qPCR data was analyzed using analytic (Thermo Fisher Scientific, QuantStudio Design and Analysis) software.
At 7 post-treatment, RNA was extracted from live aphids and RT-pPCR was done as described above (see Microinjection Delivery Experimental Design) to quantify expression of BCR-4. […]

BCR-4 [3] = assay: BCR-4 PNA microinjection, BCR-4 expression by RT-qPCR (Example 18); format: in vivo, A. pisum; conditions: microinjection 20 nl of 321 ng/μl; 4th and 5th instar; after 7 days; relative to Actin
Procedure: as §1, §2
After 7 days of treatment, RNA was extracted from the remaining aphids in each treatment group. […] RNA concentrations were measured using a nanodrop nucleic acid quantification. BCR-4 relative expression was measured by RT-qPCR. […] RT-qPCR data was analyzed using analytic (Thermo Fisher Scientific, QuantStudio Design and Analysis) software. […]

Substance: YGRKKRRQRRR-CGTACAATAATCTCATGG [BCR-4 PNA]
- aphids alive ([1]; day 7, water 53%): 30%
- aphids in the 3rd instar stage ([1]; first and second instar LSR-1, day 2 post-treatment, water approximately 19%): 8%
- mean ratio Buchnera/aphid copies (Buchnera): approximately 57 Buchnera/aphid copies
- survival versus water-injected aphids (Aphids LSR-1, A. pisum; microinjection 20 nl of 321 ng/μl, 4th and 5th instar): slight decrease in survival
- fecundity, average offspring produced per adult (Aphids LSR-1, A. pisum; microinjection, at 3 and 7 days post-treatment, water 5 offspring/adult): 4 offspring/adult
- median transcript levels of BCR-4, fold lower than water (BCR-4 [2]): approximately 3 fold
- BCR-4 expression, fold higher in water-injected aphids than in treated aphids (BCR-4 [3]): approximately 2 fold
